According to patent US6969449B2, “Multi-well plate and electrode assemblies for ion channel assays” (Vertex Pharmaceuticals (San Diego) LLC, priority 2000, dated 2005):

Tests used:
[1] = target: IRK1 channel (Rattus norvegicus, UniProt Q64273)
[2] = test system: HL5 cells; format: cell-based
[3] = test system: wild-type HEK-293 cells

IRK1 channel, sequence (Q64273 whole entry): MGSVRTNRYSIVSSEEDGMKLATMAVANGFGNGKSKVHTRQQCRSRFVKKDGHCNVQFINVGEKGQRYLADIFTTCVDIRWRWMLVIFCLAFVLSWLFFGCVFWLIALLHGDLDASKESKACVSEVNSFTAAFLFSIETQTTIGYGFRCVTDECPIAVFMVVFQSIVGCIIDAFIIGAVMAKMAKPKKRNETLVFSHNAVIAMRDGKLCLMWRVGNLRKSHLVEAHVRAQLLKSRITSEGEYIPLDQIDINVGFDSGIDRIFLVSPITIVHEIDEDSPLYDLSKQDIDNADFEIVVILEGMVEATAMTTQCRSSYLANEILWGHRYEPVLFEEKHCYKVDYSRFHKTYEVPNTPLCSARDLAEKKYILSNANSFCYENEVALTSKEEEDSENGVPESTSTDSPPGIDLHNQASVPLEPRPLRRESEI

[Ba+2].[Cl-].[Cl-] [barium chloride]
voltage change during stimulation with barium block [1]: no detectable voltage change

NC1=N[C@H](O)[C@H]2[C@H]3O[C@]4(O)O[C@@H]([C@@H](O)[C@@]2(N1)[C@@H]4O)[C@]3(O)CO [TTX, tetrodotoxin]
block of the positive response [2]: partially blocks the positive response
effect on sustained signal above 50 V/cm [2]: unaffected

CC[N+](CC)(CC)CC [TEA, Tetraethylammonium]
block of response to electrical stimulation [3]: partially blocks the response
